Data published in US10533034B2, “Human iNKT cell activation using glycolipids” (ACADEMIA SINICA, priority 2014, dated 2020).

Tests used:
[1] = tested on: B6 wild type mice; test: Murine serum cytokine/chemokine secretion after i.v. glycolipid, wild type mice; assay type: in vivo, mouse; settings: 1 μg/mouse i.v.; 2 and 18 hr
Protocol: B6 wild type mice were i.v. injected with 7DW8-5-Glc at 0.1 or 1 μg/mouse. Sera collected at 2 h and 18 h post-injection were analyzed for chemokine secretions such as IP-10 (6A), KC (6B), MCP-1 (6C), and MIP-1α (6D). These chemokines peaked at 2 hr post-injection.
B6 wild type and Jα18 knockout mice were i.v. injected with the indicated glycolipids (1 μg/mouse) or vehicle. Sera collected at 2 h and 18 h post-injection were analyzed for cytokines like IL-2 (7A), IL-6 (7B), GM-CSF (7C) and TNFα (7D) as well as chemokines such as IP-10 (7E), MIG (7F), KC (7G) and MCP-1 (7H). Only MIG peaked at 18 hr post-injection, while the others peaked at 2 hr post-injection.
All the glycolipids were dissolved in 100% DMSO at a concentration of 1-2 mg/ml. For in vivo experiments, all compounds were diluted to 10 μg/ml in saline just before injection of 100 μl diluted glycolipid or 100 μl 1% DMSO into mice. Pathogen-free C57BL/6 female mice aged 6-12 weeks were obtained from the National Laboratory Animal Center (Taipei, Taiwan). Jα18 knockout (KO) B6 mice were the gifts from Dr. Masaru Taniguchi (RIKEN Research Center for Allergy and Immunology, Yokohama, Japan). All the mice were maintained in pathogen free vivarium of Institute of Cellular and Organismic Biology, Academia Sinica (Taipei, Taiwan).
B6 WT or Jα18 KO mice were intravenously injected with vehicle or glycolipids at 0.1 or 1 μg/mouse. Serum was collected at 2 and 18 h after injection for measurement of cytokines/chemokines by Beadlyte® Mouse Cytokine kit (Millipore, N.Y.) and read by a Luminex® 200™ system (Luminex, Austin, Tex.).
Previously, 0.1 μg/mouse of 7DW8-5 was sufficient for immune stimulation,^19 but higher dosage (1 μg/mouse) was required for the glucose analog 7DW8-5-Glc to induce immune responses (FIG. 6). Thus, the biological activities of newly synthesized glycolipids were tested in B6 mice 2 and 18 hr after i.v. injection of glycolipids at 1 μg/mouse. […] As compared to GSLs with αGlc, GSLs with αGal induced higher levels of cytokines and chemokines, including IFN-γ, IL-2, IL-4, IL-6, GM-CSF, TNFα and IP-10.

[2] = molecular target: Vα24+/Vβ11+ iNKT TCR (Homo sapiens, UniProt A0A075B6N4+A0A0B4J240+P15813); test: Binding avidity of hCD1d-loaded glycolipids with Vα24+ iNKT cells (ternary interaction); settings: in complex with hCD1d; Scatchard transformation; read-out: KD of ternary complex, hCD1d-glycolipid toward Vα24+/Vβ11+ iNKT TCR
Protocol: (3A) DN3A4-1.2 Vα14+ iNKT hybridoma cells and (3B) 7DW8-5-expanded Vα24^+ iNKT cells were incubated with various concentrations of the indicated dimeric mCD d-glycolipid and hCD1d-glycolipid complexes for 30 min at 4° C., respectively. The level of bound complexes at the indicated concentration was detected by anti-mIgG1 secondary antibody and analyzed by flow cytometry. The relationship between the binding percentage and the concentration of CD1ddi-glycolipids complex was plotted in mice (3A) and humans (3B). KD values in mice (3C) and humans (3D) were calculated from Scatchard transformation of the plot (3A) and 3B), respectively. Assay was performed in duplicates. Binding avidity of human CD1d-glycolipid complexes to Vα24^+ iNKT cells expanded by 7DW8-5 at 100 ng/ml was determined as described previously.^19 Next, we measured the ternary interaction between CD1d-glcolipid complex and the iNKT TCR in mice and humans. Different concentrations of mCD1d^di-glycolipid and hCD1d^di-glycolipid complexes were incubated with fixed amounts of DN3A4-1.2 murine iNKT hybridoma cells and human Vα24+/Vβ11^+ iNKT cells, respectively. The level of bound complexes at the indicated concentration was detected by anti-mIgG1 secondary antibody and analyzed by flow cytometry (FIGS. 3A and 3B). The KD of the ternary complex was calculated from the Scatchard transformation of the plots in FIGS. 3A and 3B using GraphPad Prism software. […] This was consistent with the observation that higher percentages of C1-pulsed splenocytes were stained by the mCD1d-7DW8-5 complex (36.2±5.0%) than mCD1d-7DW8-5-Glc complex (17.1±0.8%) (FIG. 11).

[3] = tested on: B6 WT mice splenocytes; test: FACS analyses of WT mouse immune cells after glycolipid stimulation; assay type: in vivo; settings: 1 μg/mouse; 72 hr
Protocol: B6 WT mice treated with the indicated glycolipid (1 μg/mouse) or vehicle (1% DMSO in PBS) were sacrificed at 72 hr post-injection and their splenocytes were subjected to FACS analysis. (8A) The total splenocytes, (8B) total CD11Chi cells, (8C) CD11Chi/CD80+ cells, (8D) CD11Chi/CD86+ cells, (8E) CD4^+ T cells and (8F) CD8^+ T cells.
B6 WT or Jα18 KO mice treated with specific glycolipid (1 μg/mouse) or vehicle (1% DMSO in PBS) were sacrificed at 72 hr post-injection and their spleens were harvested. After pressing spleens through 70 um strainer and lysis of erythrocytes, the nucleated cells were resuspended in PBS buffer containing azide (0.05%) and stained with antibodies recognizing the indicated cell surface antigens for 30 min at 4° C. After washing, the splenocytes were subjected to FACS analysis. The antibodies against CD3, CD4, CD8α, CD11c, CD80, and CD86 were obtained from BD Bioscience-Pharmingen.
Next, we analyzed the expansion/activation of immune cells in WT mice 3 days after glycolipid stimulation. The numbers of total T cells, CD4^+ T and CD8^+ T cells were higher in mice treated by GSLs with αGal head than those treated by GSLs with αGlc (FIGS. 2C, 8E and 8F). This was in line with the observation that more cytokines/chemokines were induced by GSLs with αGal than GSLs with αGlc in mice (FIGS. 2A, 2B and 7). […] As compared to 7DW8-5-Glc, C1-Glc not only expanded ˜1.3 fold more splenocytes and DCs (FIGS. 8A and 8B) but also activated ˜3.5 fold more CD80^+ DCs as well as ˜3 fold more CD86^+ DCs (FIGS. 8C and 8D). The increased expansion/activation of DCs may contribute to the stronger immunogenicity triggered by C1-Glc and C34-Glc as compared to 7DW8-5-Glc in vivo.

[4] = tested on: iNKT TCR of DN3A4-1.2 Vα14+ iNKT hybridoma cells; test: Binding avidity of mCD1d-loaded glycolipids to Vα14+ iNKT cells (ternary interaction); parameters: species or system mouse; settings: complexed with mCD1d; Scatchard transformation; flow cytometry; read-out: KD of ternary complex, mCD1d-glycolipid toward iNKT TCR
Protocol: (3A) DN3A4-1.2 Vα14+ iNKT hybridoma cells and (3B) 7DW8-5-expanded Vα24^+ iNKT cells were incubated with various concentrations of the indicated dimeric mCD d-glycolipid and hCD1d-glycolipid complexes for 30 min at 4° C., respectively. The level of bound complexes at the indicated concentration was detected by anti-mIgG1 secondary antibody and analyzed by flow cytometry. The relationship between the binding percentage and the concentration of CD1ddi-glycolipids complex was plotted in mice (3A) and humans (3B). KD values in mice (3C) and humans (3D) were calculated from Scatchard transformation of the plot (3A) and 3B), respectively. Assay was performed in duplicates.
Briefly, murine CD1d:Ig dimer (BD Biosciences PharMingen, San Diego, Calif.) was loaded with glycolipids at a molar ratio of 1:10 or vehicle for overnight at 37° C. Murine 1.2 Vα14+ iNKT cells were incubated with various doses of dimer-glycolipid complex in buffer containing azide (0.05%) for 30 min at 4° C. These cells were then stained with anti-mouse IgG1-PE mAb (A85-1) for another 30 min at 4° C., followed by washing, fixation with 4% paraformaldehyde (PFA), and the bound mCD1d dimer complexes were detected by flow cytometry. The binding curve and linear fit of the Scatchard transformation were plotted by Graphpad Prism software.
Next, we measured the ternary interaction between CD1d-glcolipid complex and the iNKT TCR in mice and humans. Different concentrations of mCD1d^di-glycolipid and hCD1d^di-glycolipid complexes were incubated with fixed amounts of DN3A4-1.2 murine iNKT hybridoma cells and human Vα24+/Vβ11^+ iNKT cells, respectively. The level of bound complexes at the indicated concentration was detected by anti-mIgG1 secondary antibody and analyzed by flow cytometry (FIGS. 3A and 3B). The KD of the ternary complex was calculated from the Scatchard transformation of the plots in FIGS. 3A and 3B using GraphPad Prism software. […] This was consistent with the observation that higher percentages of C1-pulsed splenocytes were stained by the mCD1d-7DW8-5 complex (36.2±5.0%) than mCD1d-7DW8-5-Glc complex (17.1±0.8%) (FIG. 11).

[5] = tested on: human Vα24-restricted NKT cells; test: Cytokine production of human iNKT cells co-cultured with autologous DCs and glycolipids (Luminex); assay type: cell-based; settings: 1 μg/mL; 72 hrs
Protocol: Human Vα24-restricted NKT cells were isolated from PBMC by magnetic beads, and iNKT cells were cultured with 50 μ/mL recombinant human IL-2. Two days later, iNKT cells were co-cultured with autologous monocyte-derived DCs and different glycolipids at 1 μg/mL in 96 wells. At 72 hrs, the supernatant were collected to determine the cytokines profiles by Luminex. (A) Secretion of IFN-γ and IL-4 was similar among all glycolipids. […] One-way ANOVA was used for statistic analysis. ***P<0.001 compared with C1. #, P<0.05 compared to C34.
To compare the capacities of C1, C34, K691, K705 and K706 in activating human iNKT cells, human Vα24-restricted NKT cells were isolated from PBMC by magnetic beads, and incubated with recombinant human IL-2 ([…]). Two days later, iNKT cells were co-cultured with autologous monocyte-derived DCs loaded with different glycolipids (1 μg/mL), including C1, C34, K691, K705 and K706, in 96 wells for three days. The supernatants were collected to determine cytokines/chemokines by Luminex assay. […] (Statistical evaluation was performed using one-way ANOVA. *P<0.05 compared with C1. #, P=0.002 compared with C34, using Student's T test).

Kd [2] [nM] | Compound | induction of serum cytokines/chemokines [1] | CD80+ DCs activated, fold more than 7DW8-5-Glc [3] [fold] | CD86+ DCs activated, fold more than 7DW8-5-Glc [3] [fold] | Kd [4] [nM] | Ratio of IFN-γ/IL-4 compared with C1 [5] | DCs expanded, fold more than 7DW8-5-Glc [3] [fold] | splenocytes expanded, fold more than 7DW8-5-Glc [3] [fold]
0.378 ± 0.019 | CC[C@@H](O)[C@@H](O)[C@H](CO[C@H]1OC(CO)[C@@H](O)C(O)C1O)NC(=O)Cc1ccc(Oc2ccc(F)cc2)cc1 (some centres unmarked) [Compound C34-Glc] | triggered both cytokines and chemokines | ~2 | ~2 | 7.96 ± 1.27 | – | – | –
16.4 ± 4.2 | CCCCCCCCCCCCCCCCCCCCCCCCCC(=O)N[C@@H](CO[C@H]1O[C@H](CO)[C@H](O)[C@H](O)[C@H]1O)[C@H](O)[C@H](O)CCCCCCCCCCCCCC [Compound C1, α-Galactosyl ceramide, reference compound] | – | – | – | 1.24 ± 0.003 | – | – | –
0.498 ± 0.005 | CCCCCCCCCCCCCCC(O)C(O)C(COC1OC(CO)C(O)C(O)C1O)NC(=O)CCCCCCCCCCc1ccc(Oc2ccc(F)cc2)cc1 (centres unmarked) [Compound C34] | – | – | – | 0.735 ± 0.01 | significantly higher | – | –
8.55 ± 0.617 | CCC(=O)N[C@@H](CO[C@H]1OC(CO)[C@@H](O)C(O)C1O)[C@H](O)[C@H](O)CC (some centres unmarked) [Compound C1-Glc] | triggered both cytokines and chemokines | ~3.5 | ~3 | 5.14 ± 0.11 | – | ~1.3 | ~1.3
